A value given as a limit tells only on which side of the number the result lay.

The target in data set [1] is Neuronal acetylcholine receptor subunit alpha-7 (Rattus norvegicus, UniProt Q05941). Kind of data set: Displacement of [3H]methyllylcaconitine from alpha7 nAChR in rat brain. It is filed as tissue-based. For orientation: Displacement assays read how much labelled ligand stays bound in the presence of the test substance.
Data set [2] has as its target Neuronal acetylcholine receptor subunit alpha-7 (Rattus norvegicus) (UniProt Q05941). As to the kind of experiment: Ratio of tilorone Ki to compound Ki for alpha7 nAChR in rat brain. The class given is tissue-based.
Data set [3] in a line: Binding affinity to 5HT3.
A short description of data set [4]: Ratio of drug level in brain to plasma in rat at 3 umol/kg, ip at 30 mins. It is filed as ADME, organism-based. Conditions: read-out: BPR.
Data set [5] can be described thus: Plasma concentration in rat at 3 umol/kg, ip at 30 mins. It is filed as ADME, organism-based.
In data set [6] the target is T1, Neuronal acetylcholine receptor subunit alpha-7 (Homo sapiens, UniProt P36544). As to the kind of experiment: Agonist activity at human recombinant alpha7 nAChR expressed in xenopus oocytes by patch clamp assay. The class given is functional, cell-based, Oocyte.
Data set [7] addresses T1, Neuronal acetylcholine receptor subunit alpha-7. As to the kind of experiment: Agonist activity at human recombinant alpha7 nAChR expressed in xenopus oocytes by patch clamp assay relative to acetylcholine. The conditions noted are these: Oocyte. It is filed as functional, cell-based.
In data set [8] the target is T2, Neuronal acetylcholine receptor; alpha4/beta2 (Homo sapiens, UniProt P17787+P43681). Kind of data set: Agonist activity at human recombinant alpha4beta2 nAChR in HEK293 cells by FLIPR assay. The class given is functional, cell-based.
The target of data set [9] is T3, Neuronal acetylcholine receptor; alpha3/beta4 (Homo sapiens, UniProt P30926+P32297). Kind of data set: Agonist activity at human recombinant alpha3beta4 nAChR in HEK293 cells by FLIPR assay. The class given is functional, cell-based.
In data set [10] the target is Neuronal acetylcholine receptor; alpha3/beta2 (Homo sapiens, UniProt P17787+P32297). As to the kind of experiment: Agonist activity at alpha3beta2 nAChR receptor by FLIPR assay. The class given is functional.
Data set [11] addresses T3, Neuronal acetylcholine receptor; alpha3/beta4. Kind of data set: Agonist activity at alpha3beta4 nAChR receptor by FLIPR assay. It is filed as functional.
The target of data set [12] is T2, Neuronal acetylcholine receptor; alpha4/beta2. Kind of data set: Agonist activity at alpha4beta2 nAChR receptor by FLIPR assay. The class given is functional.
For data set [13], the target named is Neuronal acetylcholine receptor; alpha4/beta4 (Homo sapiens, UniProt P30926+P43681). Kind of data set: Agonist activity at alpha4beta4 nAChR receptor by FLIPR assay. The class given is functional.
Data set [14] has as its target Muscarinic acetylcholine receptor. Kind of data set: Binding affinity to muscarinic receptor in rat brain. The class given is tissue-based.
Data set [15] addresses Voltage-gated inwardly rectifying potassium channel KCNH2 (Homo sapiens, UniProt Q12809). As to the kind of experiment: Displacement of [3H]dofetilide from human ERG expressed in HEK293 cells.

T1 sequence (P36544 whole entry): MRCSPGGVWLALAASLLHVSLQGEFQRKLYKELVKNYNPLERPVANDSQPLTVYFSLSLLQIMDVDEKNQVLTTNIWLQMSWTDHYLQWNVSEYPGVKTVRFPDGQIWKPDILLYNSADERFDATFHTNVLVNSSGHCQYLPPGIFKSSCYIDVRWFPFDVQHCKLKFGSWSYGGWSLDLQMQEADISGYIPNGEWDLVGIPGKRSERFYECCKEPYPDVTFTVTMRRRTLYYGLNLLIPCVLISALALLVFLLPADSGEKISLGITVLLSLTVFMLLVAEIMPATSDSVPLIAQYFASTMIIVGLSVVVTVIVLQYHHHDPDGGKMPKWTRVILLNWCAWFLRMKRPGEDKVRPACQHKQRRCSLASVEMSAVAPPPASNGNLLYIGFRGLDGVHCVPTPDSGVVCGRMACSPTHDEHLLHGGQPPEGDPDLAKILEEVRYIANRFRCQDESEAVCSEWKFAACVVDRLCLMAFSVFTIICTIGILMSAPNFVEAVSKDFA
Sequence of Neuronal acetylcholine receptor subunit alpha-7 (Rattus norvegicus, UniProt Q05941) (Q05941 whole entry): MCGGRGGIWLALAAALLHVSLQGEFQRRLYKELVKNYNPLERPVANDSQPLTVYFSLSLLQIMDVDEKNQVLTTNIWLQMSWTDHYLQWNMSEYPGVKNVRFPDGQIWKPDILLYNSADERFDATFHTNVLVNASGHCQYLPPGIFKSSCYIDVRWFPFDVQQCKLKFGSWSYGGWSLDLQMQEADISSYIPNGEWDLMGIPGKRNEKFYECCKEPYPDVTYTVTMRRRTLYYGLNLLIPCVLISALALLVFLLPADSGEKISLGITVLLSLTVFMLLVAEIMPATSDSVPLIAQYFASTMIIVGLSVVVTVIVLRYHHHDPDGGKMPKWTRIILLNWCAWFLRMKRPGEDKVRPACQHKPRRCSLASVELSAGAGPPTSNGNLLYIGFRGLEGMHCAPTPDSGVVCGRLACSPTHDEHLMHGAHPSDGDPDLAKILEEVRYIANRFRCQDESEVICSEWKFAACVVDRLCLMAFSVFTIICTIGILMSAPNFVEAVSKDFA
T2 sequence (P17787 whole entry): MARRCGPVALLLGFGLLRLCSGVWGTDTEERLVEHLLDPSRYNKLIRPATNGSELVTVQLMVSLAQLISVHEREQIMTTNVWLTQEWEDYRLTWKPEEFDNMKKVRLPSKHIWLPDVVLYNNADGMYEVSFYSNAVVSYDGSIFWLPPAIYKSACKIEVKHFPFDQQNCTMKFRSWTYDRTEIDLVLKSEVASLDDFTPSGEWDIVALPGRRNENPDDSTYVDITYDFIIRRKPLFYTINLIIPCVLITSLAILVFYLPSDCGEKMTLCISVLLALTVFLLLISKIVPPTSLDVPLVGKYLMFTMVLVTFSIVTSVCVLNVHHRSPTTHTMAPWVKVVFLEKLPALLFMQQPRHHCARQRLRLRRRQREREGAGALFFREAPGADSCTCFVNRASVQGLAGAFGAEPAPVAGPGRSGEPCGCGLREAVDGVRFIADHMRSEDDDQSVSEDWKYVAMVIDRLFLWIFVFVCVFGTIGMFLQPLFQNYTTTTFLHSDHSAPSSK
T2 sequence (P43681 whole entry): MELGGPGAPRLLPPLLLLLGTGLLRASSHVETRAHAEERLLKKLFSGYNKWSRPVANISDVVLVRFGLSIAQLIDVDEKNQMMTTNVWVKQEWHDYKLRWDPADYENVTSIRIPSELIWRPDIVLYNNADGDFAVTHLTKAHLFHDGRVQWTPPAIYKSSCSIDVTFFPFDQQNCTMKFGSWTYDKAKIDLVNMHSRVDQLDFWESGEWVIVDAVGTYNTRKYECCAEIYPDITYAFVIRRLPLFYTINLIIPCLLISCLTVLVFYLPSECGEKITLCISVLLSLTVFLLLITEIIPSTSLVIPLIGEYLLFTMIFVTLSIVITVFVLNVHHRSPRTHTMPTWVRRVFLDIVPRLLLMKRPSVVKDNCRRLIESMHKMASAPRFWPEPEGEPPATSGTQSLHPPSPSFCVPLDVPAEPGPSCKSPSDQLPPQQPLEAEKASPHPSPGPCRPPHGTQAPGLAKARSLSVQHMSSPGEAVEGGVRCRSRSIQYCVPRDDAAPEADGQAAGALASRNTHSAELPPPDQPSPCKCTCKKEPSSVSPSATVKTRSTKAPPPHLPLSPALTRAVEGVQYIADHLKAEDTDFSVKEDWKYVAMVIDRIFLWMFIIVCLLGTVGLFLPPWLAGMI
T3 sequence (P30926 whole entry): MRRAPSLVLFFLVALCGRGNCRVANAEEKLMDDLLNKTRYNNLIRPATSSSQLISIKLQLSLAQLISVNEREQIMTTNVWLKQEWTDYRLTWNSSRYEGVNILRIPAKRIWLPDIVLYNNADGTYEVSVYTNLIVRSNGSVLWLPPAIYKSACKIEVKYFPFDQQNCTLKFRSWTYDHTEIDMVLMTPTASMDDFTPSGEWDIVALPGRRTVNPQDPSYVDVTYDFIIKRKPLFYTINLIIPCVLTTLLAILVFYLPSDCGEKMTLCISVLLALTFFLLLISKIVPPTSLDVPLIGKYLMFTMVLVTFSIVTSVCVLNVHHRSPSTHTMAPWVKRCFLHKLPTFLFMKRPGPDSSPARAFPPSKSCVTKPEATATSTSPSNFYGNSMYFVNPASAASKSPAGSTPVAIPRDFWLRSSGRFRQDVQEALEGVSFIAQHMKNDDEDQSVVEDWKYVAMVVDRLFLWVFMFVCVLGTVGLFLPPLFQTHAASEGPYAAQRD
T3 sequence (P32297 whole entry): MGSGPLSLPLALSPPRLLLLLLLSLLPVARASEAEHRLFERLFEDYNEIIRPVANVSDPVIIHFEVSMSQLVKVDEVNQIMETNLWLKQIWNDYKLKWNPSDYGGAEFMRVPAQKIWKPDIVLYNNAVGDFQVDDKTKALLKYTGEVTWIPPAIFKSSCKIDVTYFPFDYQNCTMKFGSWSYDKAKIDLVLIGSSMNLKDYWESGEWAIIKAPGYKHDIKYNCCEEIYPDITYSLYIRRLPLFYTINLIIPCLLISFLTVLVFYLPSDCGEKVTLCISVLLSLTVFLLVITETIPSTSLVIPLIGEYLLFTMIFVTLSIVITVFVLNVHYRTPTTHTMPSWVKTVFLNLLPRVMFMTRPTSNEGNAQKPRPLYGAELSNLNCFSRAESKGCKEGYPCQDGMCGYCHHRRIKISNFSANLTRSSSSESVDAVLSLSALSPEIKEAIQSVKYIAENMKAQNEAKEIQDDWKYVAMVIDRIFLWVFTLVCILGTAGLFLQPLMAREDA
Sequence of Neuronal acetylcholine receptor subunit alpha-7 (Rattus norvegicus) (Q05941 whole entry): as the sequence (Q05941 whole entry) above
Sequence of Voltage-gated inwardly rectifying potassium channel KCNH2 (Q12809 whole entry): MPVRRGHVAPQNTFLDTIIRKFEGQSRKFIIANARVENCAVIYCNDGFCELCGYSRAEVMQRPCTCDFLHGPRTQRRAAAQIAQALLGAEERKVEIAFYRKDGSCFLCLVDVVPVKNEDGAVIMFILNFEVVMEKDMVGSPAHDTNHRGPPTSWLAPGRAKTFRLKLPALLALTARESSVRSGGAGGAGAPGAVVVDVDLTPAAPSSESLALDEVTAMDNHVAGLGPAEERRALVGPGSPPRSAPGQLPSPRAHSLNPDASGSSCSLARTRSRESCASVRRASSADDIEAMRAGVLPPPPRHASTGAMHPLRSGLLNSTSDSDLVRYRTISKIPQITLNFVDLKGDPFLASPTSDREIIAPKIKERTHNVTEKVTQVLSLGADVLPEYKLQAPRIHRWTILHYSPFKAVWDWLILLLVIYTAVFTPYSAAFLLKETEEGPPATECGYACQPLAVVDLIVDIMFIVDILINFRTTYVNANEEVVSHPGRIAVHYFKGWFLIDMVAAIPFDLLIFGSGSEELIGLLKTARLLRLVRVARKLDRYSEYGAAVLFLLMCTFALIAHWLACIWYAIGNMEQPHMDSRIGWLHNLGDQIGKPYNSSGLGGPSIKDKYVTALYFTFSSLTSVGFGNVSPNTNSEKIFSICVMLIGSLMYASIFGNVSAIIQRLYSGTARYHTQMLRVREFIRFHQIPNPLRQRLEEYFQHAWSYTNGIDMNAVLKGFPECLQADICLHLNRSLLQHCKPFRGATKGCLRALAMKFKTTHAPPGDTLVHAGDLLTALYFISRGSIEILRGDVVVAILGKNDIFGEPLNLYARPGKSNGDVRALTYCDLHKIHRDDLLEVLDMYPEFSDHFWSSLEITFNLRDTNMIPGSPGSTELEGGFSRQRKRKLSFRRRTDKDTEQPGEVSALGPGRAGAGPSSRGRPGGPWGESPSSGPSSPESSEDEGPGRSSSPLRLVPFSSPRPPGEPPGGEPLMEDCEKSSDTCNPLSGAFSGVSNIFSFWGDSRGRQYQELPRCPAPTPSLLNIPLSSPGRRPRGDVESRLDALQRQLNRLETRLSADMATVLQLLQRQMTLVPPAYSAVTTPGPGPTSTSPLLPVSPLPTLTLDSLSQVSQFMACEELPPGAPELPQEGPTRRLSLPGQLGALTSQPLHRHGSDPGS
Sequence of Neuronal acetylcholine receptor; alpha3/beta2 (P17787 whole entry): as the sequence (P17787 whole entry) above
Sequence of Neuronal acetylcholine receptor; alpha3/beta2 (P32297 whole entry): as the sequence (P32297 whole entry) above
Sequence of Neuronal acetylcholine receptor; alpha4/beta4 (P30926 whole entry): as the sequence (P30926 whole entry) above
Sequence of Neuronal acetylcholine receptor; alpha4/beta4 (P43681 whole entry): as the sequence (P43681 whole entry) above

In turn, `CN1CCN(c2ccc3c(c2)C(=O)c2cc(N4CCN(C)CC4)ccc2-3)CC1` registered a Ki in [1] of 0.14 µM. Still for that read-out and setting: then `O=S1(=O)c2ccccc2-c2ccc(O[C@@H]3CN4CCC3CC4)cc21`, with 0.028 µM; and `O=C1c2ccccc2-c2ccc(O[C@@H]3CN4CCC3CC4)cc21`, with 0.012 µM.

`CCNCCOc1ccc2c(c1)C(=O)c1cc(OCCNCC)ccc1-2` came in with a Ki in data set [1] of 0.95 µM.

In data set [1], `CCN(CC)CCOc1ccc2c(c1)C(O)c1cc(OCCN(CC)CC)ccc1-2` displayed a Ki of 0.27 µM. On the same count and under the same terms, to `CC[N+](C)(CC)CCOc1ccc2c(c1)C(=O)c1cc(OCC[N+](C)(CC)CC)ccc1-2` belongs 0.015 µM; to `O=C1c2cc(N3CC4CNCC4C3)ccc2-c2ccc(N3CC4CNCC4C3)cc21` (configuration not stated), 0.00031 µM; to `O=C1c2cc(OCCN3CCCCC3)ccc2-c2ccc(OCCN3CCCCC3)cc21`, 4.2 µM. The same measure, in the same setting: to `CCN(CC)CCCCOc1ccc2c(c1)C(=O)c1cc(OCCCCN(CC)CC)ccc1-2` belongs 2.3 µM; to `CCN(CC)CCOc1ccc2c(c1)C(=O)c1cc(OCCOC)ccc1-2`, 2 µM; to `CN1CCC(Oc2ccc3c(c2)C(=O)c2cc(OC4CCN(C)CC4)ccc2-3)CC1`, 0.037 µM. `CN1CC2CN(c3ccc4c(c3)C(=O)c3cc(N)ccc3-4)CC2C1` (configuration not stated) gave a Ki in data set [1] of 0.00065 µM. On the same count and under the same terms, to `CCN(CC)CCCOc1ccc2c(c1)C(=O)c1cc(OCCCN(CC)CC)ccc1-2` belongs 0.83 µM.

In data set [1], `CCN(CC)CCCc1ccc2c(c1)C(=O)c1cc(CCCN(CC)CC)ccc1-2` displayed a Ki of 2.9 µM. On the same count and under the same terms, then `CCN(CC)CCOc1ccc2c(c1)sc1cc(OCCN(CC)CC)ccc12`, with 1.6 µM.

For the molecule `CN1[C@@H]2CC[C@H]1C[C@H](Oc1ccc3c(c1)C(=O)c1cc(O[C@@H]4C[C@H]5CC[C@@H](C4)N5C)ccc1-3)C2`, in data set [1], the Ki was found to be 0.09 µM. The same measure, in the same setting: then `CCN(CC)CCOc1ccc2c3ccc(OCCN(CC)CC)cc3[s+]([O-])c2c1`, with 0.69 µM; and `O=C1c2cc(O[C@@H]3CN4CCC3CC4)ccc2-c2ccc(O[C@@H]3CN4CCC3CC4)cc21`, with 0.0016 µM. The same measure, in the same setting: to `CCN(CC)CCOc1cccc(C(=O)c2cccc(OCCN(CC)CC)c2)c1` belongs 68 µM; to `CCN(CC)CC#Cc1ccc2c(c1)C(=O)c1cc(C#CCN(CC)CC)ccc1-2`, 0.087 µM; to `CCN(CC)CCOc1ccc(-c2ccc(OCCN(CC)CC)cc2)cc1`, > 1000 µM. Still for that read-out and setting: to `c1ccc2c(c1)Cc1cc(O[C@@H]3CN4CCC3CC4)ccc1-2` belongs 0.34 µM; to `NCCOc1ccc2c(c1)C(=O)c1cc(OCCN)ccc1-2`, 15 µM; to `O=C1c2ccccc2-c2ccc(N3CCN4CCC3CC4)cc21`, 0.00028 µM. As for `CN1CC[C@@H](Oc2ccc3c(c2)C(=O)c2cc(O[C@@H]4CCN(C)C4)ccc2-3)C1`, in data set [1], the affinity, expressed as Ki, was 0.012 µM. This Ki is about 43-fold higher than that of the molecule before. The same measure, in the same setting: then `CN1CC2CN(c3ccc4c(c3)C(=O)c3ccccc3-4)CC2C1` (configuration not stated), with 0.063 µM. In data set [1], `CN1CCCN(c2ccc3c(c2)C(=O)c2cc(N4CCCN(C)CC4)ccc2-3)CC1` displayed a Ki of 0.0065 µM. Besides, in data set [2], the Ratio Ki turned out to be 10. With `O=c1c2ccccc2oc2ccc(O[C@H]3CN4CCC3CC4)cc12`, the affinity in [1], expressed as Ki, was 0.0087 µM. That is a single-digit nanomolar value.

Molecule `CCN(CC)CCOc1ccc2oc3ccc(OCCN(CC)CC)cc3c(=O)c2c1` returned a Ki in data set [1] of 0.44 µM. On the same count and under the same terms, to `CN1CCC[C@H]1COc1ccc2c(c1)C(=O)c1cc(OC[C@@H]3CCCN3C)ccc1-2` belongs 0.012 µM. In data set [1], `O=C1c2cc(N3C[C@@H]4CN[C@@H]4C3)ccc2-c2ccc(N3C[C@@H]4CN[C@@H]4C3)cc21` registered a Ki of 0.018 µM. This Ki and that of the molecule before are within 1.5-fold of each other. On the same count and under the same terms, then `O=C1c2cc(O[C@H]3CN4CCC3CC4)ccc2-c2ccc(O[C@H]3CN4CCC3CC4)cc21`, with 0.00058 µM. Same read-out and setting: then `CC(C)N(CCOc1ccc2c(c1)C(=O)c1cc(OCCN(C(C)C)C(C)C)ccc1-2)C(C)C`, with 1.3 µM; and `CCN(CC)CCOc1ccc2c(c1)Cc1cc(OCCN(CC)CC)ccc1-2`, with 0.77 µM. On the same count and under the same terms, to `CN1CC2CN(c3ccc4c(c3)C(=O)c3cc(N5CC6CN(C)CC6C5)ccc3-4)CC2C1` (configuration not stated) belongs 0.0012 µM; to `CN(C)CCOc1ccc2c(c1)C(=O)c1cc(OCCN(C)C)ccc1-2`, 0.05 µM.

As to `O=c1c2ccccc2oc2ccc(O[C@@H]3CN4CCC3CC4)cc12`, the affinity in data set [1], expressed as Ki, was 0.0088 µM. As to `CN1CC[C@@H]1COc1ccc2c(c1)C(=O)c1cc(OC[C@H]3CCN3C)ccc1-2`, the Ki in data set [1] worked out at 0.0043 µM. This Ki is about 2-fold lower than that of the molecule before. The same measure, in the same setting: then `O=C1c2ccccc2-c2ccc(O[C@H]3CN4CCC3CC4)cc21`, with 0.0032 µM; and `O=S1(=O)c2ccccc2-c2ccc(O[C@H]3CN4CCC3CC4)cc21`, with 0.0039 µM; and `CN1C[C@H]2CN(c3ccc4c(c3)C(=O)c3cc(N5C[C@@H]6CN(C)[C@@H]6C5)ccc3-4)C[C@H]21`, with 9.2e-05 µM. Same read-out and setting: to `CCN(CC)CCOc1ccc2ccc(OCCN(CC)CC)cc2c1` belongs > 1000 µM. Consider `CN1CC2CN(c3ccc4oc5ccccc5c(=O)c4c3)CC2C1` (configuration not stated), for which the inhibition constant Ki worked out at 0.1 µM in data set [3] and 0.004 µM in data set [1]. Also, the Kp at 0.5 h in [4] worked out at 48. Moreover, the concentration at 0.5 h in data set [5] amounted to 12.4 ng/mL. For the same molecule, the EC50 in data set [6] is 2.2 µM; in data set [8], > 100 µM; in data set [9], > 100 µM. Besides, the Emax in data set [7] came to 61%. In the case of `CCN(CC)CCOc1ccc2c(c1)C(=O)c1ccccc1-2`, in data set [1], the Ki amounted to 1.8 µM. This lies in the single-digit micromolar range. Take `CCN(CC)CCOc1ccc2c(c1)C(=O)c1cc(OCCN(CC)CC)ccc1-2` [TILORONE]: the Ki in data set [1] stood at 0.056 µM; in [14] it was 0.42 µM. Further, the EC50 is 2.5 µM in data set [6]; > 10 µM in data set [10]; > 10 µM in [11]; > 10 µM in data set [12]; > 10 µM in data set [13]. In addition, in data set [7], the Emax came out at 67%. `CN1C[C@H]2CN(c3ccc4c(c3)S(=O)(=O)c3ccccc3-4)C[C@H]21` came in with a Ki in data set [1] of 0.023 µM.

For `CN1CCC[C@@H]1COc1ccc2c(c1)C(=O)c1cc(OC[C@H]3CCCN3C)ccc1-2`, the Ki in [1] worked out at 0.0076 µM. As for `O=S1(=O)c2ccccc2-c2ccc(N3CCN4CCC3CC4)cc21`, the figures for the Ki in data set [3], in data set [15] and in data set [1] were 0.66 µM, 0.47 µM and 2.3e-05 µM, respectively. In addition, the Kp at 0.5 h in [4] stood at 12. The concentration at 0.5 h in data set [5] stood at 8.4 ng/mL. Also, the EC50 in data set [6], in data set [8] and in data set [9] was > 100 µM in each case. Also, the Emax in [7] is < 5%. Molecule `O=C1c2cc(O[C@@H]3CCNC3)ccc2-c2ccc(O[C@@H]3CCNC3)cc21` returned a Ki in data set [1] of 0.071 µM. With `CCN(CC)CCOc1ccc2c(c1)S(=O)(=O)c1cc(OCCN(CC)CC)ccc1-2`, the affinity in [1] corresponds to a Ki of 0.23 µM. Consider `c1ccc2c(c1)Cc1cc(O[C@H]3CN4CCC3CC4)ccc1-2`, for which the Ki in data set [1] came out at 0.11 µM. Molecule `CN1C[C@H]2CN(c3ccc4c(c3)C(=O)c3ccccc3-4)C[C@H]21` displayed a Ki in [1] of 0.0059 µM. The Ratio Ki in data set [2] amounted to 10.

Take `O=C1c2cc(OCCN3CCCC3)ccc2-c2ccc(OCCN3CCCC3)cc21`: the affinity in [1] corresponds to a Ki of 0.053 µM.

In general, Ki refers to a dissociation constant, usually derived from enzyme kinetics or from competition with a known ligand. Broadly, the EC50 is the midpoint of the concentration-response curve. As a reminder, the Emax is the maximal effect, on the per cent scale that the assay sets.

The record behind these values is ChEMBL document CHEMBL1949494, “SAR of α7 nicotinic receptor agonists derived from tilorone: exploration of a novel nicotinic pharmacophore” (Bioorg Med Chem Lett, 2012).
